Assay results taken from PMC3361628 (European Journal of Medicinal Chemistry, 2012).

Assays:
[1] = test system: Trypanosoma rhodesiense; conditions: in vivo, 320 mg/kg; cited from earlier work
[2] = test system: mice; conditions: mouse, in vivo; cited from earlier work
[3] = target: BoNT/A LC (Clostridium botulinum, UniProt P0DPI0); type: biochemical
BoNT/A LC, sequence (P0DPI0 2-448 limits assumed): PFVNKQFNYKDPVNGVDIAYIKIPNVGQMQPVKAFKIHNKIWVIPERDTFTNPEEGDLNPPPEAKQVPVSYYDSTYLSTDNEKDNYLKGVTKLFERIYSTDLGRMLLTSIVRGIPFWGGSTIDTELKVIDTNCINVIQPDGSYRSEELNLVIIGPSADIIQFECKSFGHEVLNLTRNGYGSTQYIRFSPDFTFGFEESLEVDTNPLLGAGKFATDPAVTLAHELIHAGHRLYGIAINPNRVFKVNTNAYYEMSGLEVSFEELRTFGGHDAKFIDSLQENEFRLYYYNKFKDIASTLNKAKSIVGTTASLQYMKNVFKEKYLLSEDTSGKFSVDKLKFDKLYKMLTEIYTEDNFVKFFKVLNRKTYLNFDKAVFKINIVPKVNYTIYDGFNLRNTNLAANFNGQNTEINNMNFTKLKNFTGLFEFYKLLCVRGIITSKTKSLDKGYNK

SMILES	decrease in inhibitory potency versus 4b [3]	further results
Cl.Cl.N=C(N)c1ccc(-c2ccc(-c3ccc(C(=N)N)cc3)s2)cc1 [Compound 1, 4,4′-Thiene-2,5-diyldibenzenecarboximidamide dihydrochloride]	–	survival [1]: 100%; toxicity to mice [2]: non-toxic
Clc1ccc2c(NCCNCc3ccc(-c4ccc(-c5ccc(CNCCNc6ccnc7cc(Cl)ccc67)cc5)s4)cc3)ccnc2c1.O=C(O)C(F)(F)F [Compound 4a, 4,4′-[Thiene-2,5-diylbis(4,1-phenylenemethyleneammonioethane-2,1-diylimino)]bis(7-chloroquinolinium) tetra(trifluoroacetate)]	approx. 3 fold	–
Clc1ccc2c(NCCCCNCc3ccc(-c4ccc(-c5ccc(CNCCCCNc6ccnc7cc(Cl)ccc67)cc5)s4)cc3)ccnc2c1.O=C(O)C(F)(F)F [Compound 4c, 4,4′-[thiene-2,5-diylbis(4,1-phenylenemethyleneammoniobutane-4,1-diylimino)]bis(7-chloroquinolinium) tetra(trifluoroacetate)]	approx. 1.8 fold	–
Clc1ccc2c(NCCCCCNCc3ccc(-c4ccc(-c5ccc(CNCCCCCNc6ccnc7cc(Cl)ccc67)cc5)s4)cc3)ccnc2c1.O=C(O)C(F)(F)F [Compound 4d, 4,4′-[thiene-2,5-diylbis(4,1-phenylenemethyleneammoniopentane-5,1-diylimino)]bis(7-chloroquinolinium) tetra(trifluoroacetate)]	approx. 3 fold	–
O=C(NCCCNc1ccnc2cc(Cl)ccc12)c1cc(NC(=O)c2ccc(C(=O)Nc3cc(C(=O)NCCCNc4ccnc5cc(Cl)ccc45)cc(C4=NCCN4)c3)cc2)cc(C2=NCCN2)c1 [II, reference compound]	–	increase in inhibitory potency versus I [3]: approx. 15 fold
